Measured values from US5980913A, “Peptides having immunomodulatory activity” (Biochem Pharma, Inc., priority 1994, dated 1999).
Where a SMILES comes first, the peptide text is derived from it. [ ]: non-standard residue; d: D form.

How the values were obtained:
T cells = assay: Activation of T cells by mitogenic proliferation (ConA, PHA); format: cell-based, C57BL/6 mice; settings: concentration not given; 0 not defined
Text: c) Activation of T or B cells by Mitogenic Proliferation
A mitogenic lectin (mitogen) is a glycoprotein which binds and cross-links specific cells surface carbohydrate determinants, and will polyclonally stimulate lymphoid cells. Lymphocyte activation by either antigens or mitogens results in intracellular changes and the subsequent development into a lymphoblast. Mitogenic stimulation of lymphocytes in vitro is believed to mimic the series of events which occur in vivo following their stimulation by specific antigens. PHA and ConA; PWM and LPS mitogens can be used as a measurement of T cell and B cell activity, respectively. Briefly, the spleen mononuclear leukocytes from C57BL/6 mice are incubated in the presence or absence of mitogens with or without candidate drugs. After 72 hours or 5 days, ^3 H-thymidine incorporation is recorded as an indication of cell proliferation.
Lymphocytes were isolated from mice spleen or human blood in accordance to methods well known in the art. 100 μl of cell suspension of 2×10^6 cells/ml was added per well (2x10^5 cells/well) and incubated in the presence of lectin at the following concentrations:
PHA=0.01% to 0.001% final concentration
Cells were incubated for 3 days with PHA or ConA, or 5 days with PWM or LPS. 1 μCi of tritiated thymidine was added to each well for the last 6 hours (or 0.5 μCi for 18 hrs). The cells were harvested in a cell Harvester (Tortech®) and counted in a Beta counter.

[1] = tested on: spleen cell subsets (cell surface antigens); assay: In vivo/ex vivo immunophenotyping in the spleen, mice treated 4 consecutive days; parameters: species or system C57BL/6 mice
Method: C57BL.backslash.6 mice are treated with 0, 50, 100, 200, and 300 mg/kg of drug (in saline) for 4 consecutive days. Blood is taken by cardiac puncture on day 5, and the lymphocytes are isolated from spleen in the following manner:
The spleen is aseptically removed and mashed by pressing against a steel strainer with a rubber plunger. The cell suspension is separated from the clumps by letting them settle at the bottom of the tube. The cell suspension is then separated on a Lymphocyte M layer and the interface is recovered and resuspended in media.
1. Immunophenotyping (blood and spleen)
Cell immunophenotyping is performed on blood and spleen. The following cell surface antigens are analyzed:
CD4 (T helper/inducer, binds class II-restricted T cells);
CD8 (cytotoxic T cells, CTL adhesion);
MAC-1 (monocyte/macrophage);
NK (natural killer cells);
CD45 (all leukocytes, protein tyrosine phosphatase).

NCCCC[C@@H](N)C(=O)N[C@@H](CC(N)=O)C(=O)N1CCC[C@H]1C(=O)N[C@@H](Cc1ccc(O)cc1)C(=O)O [PEPTIDE #5, H-(D-Lys)-Asn-Pro-Tyr-OH] (H-[dK]NPY-OH)
Activation of T Cells, ConA (T cells): 0 | Activation of T Cells, PHA (T cells): 0 | CD4+ CD8+ cell subset, relative percentage, MEAN ([1]; 50 mg/kg, first assay): 0.58 | CD4+ CD8- cell subset, relative percentage, MEAN ([1]; 50 mg/kg, first assay): 33.05 | CD4+ CD11b+ cell subset, relative percentage, MEAN ([1]; 50 mg/kg, first assay): 0.83 | CD4+ CD11b- cell subset, relative percentage, MEAN ([1]; 50 mg/kg, first assay): 23.88 | CD4- CD8+ cell subset, relative percentage, MEAN ([1]; 50 mg/kg, first assay): 5.73 | CD4- CD8- cell subset, relative percentage, MEAN ([1]; 50 mg/kg, first assay): 60.65 | CD4- CD11b+ cell subset, relative percentage, MEAN ([1]; 50 mg/kg, first assay): 3.63 | CD4- CD11b- cell subset, relative percentage, MEAN ([1]; 50 mg/kg, first assay): 71.73 | CD45+ CD4+ cell subset, relative percentage, MEAN ([1]; 50 mg/kg, first assay): 21.43 | CD45+ CD4- cell subset, relative percentage, MEAN ([1]; 50 mg/kg, first assay): 55.25 | CD45+ CD8+ cell subset, relative percentage, MEAN ([1]; 50 mg/kg, first assay): 5.38 | CD45+ CD8- cell subset, relative percentage, MEAN ([1]; 50 mg/kg, first assay): 66.00 | CD45- CD4+ cell subset, relative percentage, MEAN ([1]; 50 mg/kg, first assay): 13.28 | CD45- CD4- cell subset, relative percentage, MEAN ([1]; 50 mg/kg, first assay): 10.03 | CD45- CD8+ cell subset, relative percentage, MEAN ([1]; 50 mg/kg, first assay): 0.63 | CD45- CD8- cell subset, relative percentage, MEAN ([1]; 50 mg/kg, first assay): 28.05 | Ly5(B) cell subset, relative percentage, MEAN ([1]; 50 mg/kg, first assay): 57.85 | NK+ CD3+ cell subset, relative percentage, MEAN ([1]; 50 mg/kg, first assay): 1.50 | NK+ CD3- cell subset, relative percentage, MEAN ([1]; 50 mg/kg, first assay): 3.78 | NK- CD3+ cell subset, relative percentage, MEAN ([1]; 50 mg/kg, first assay): 38.13 | NK- CD3- cell subset, relative percentage, MEAN ([1]; 50 mg/kg, first assay): 56.68 | TCR(T) cell subset, relative percentage, MEAN ([1]; 50 mg/kg, first assay): 40.23 | CD4+ CD8+ cell subset, relative percentage, MEAN ([1]; 50 mg/kg, second assay): 0.63 | CD4+ CD8- cell subset, relative percentage, MEAN ([1]; 50 mg/kg, second assay): 36.53 | CD4+ CD11b+ cell subset, relative percentage, MEAN ([1]; 50 mg/kg, second assay): 0.38 | CD4+ CD11b- cell subset, relative percentage, MEAN ([1]; 50 mg/kg, second assay): 14.85 | CD4- CD8+ cell subset, relative percentage, MEAN ([1]; 50 mg/kg, second assay): 5.85 | CD4- CD8- cell subset, relative percentage, MEAN ([1]; 50 mg/kg, second assay): 57.03 | CD4- CD11b+ cell subset, relative percentage, MEAN ([1]; 50 mg/kg, second assay): 3.60 | CD4- CD11b- cell subset, relative percentage, MEAN ([1]; 50 mg/kg, second assay): 81.15 | CD45+ CD4+ cell subset, relative percentage, MEAN ([1]; 50 mg/kg, second assay): 29.23 | CD45+ CD4- cell subset, relative percentage, MEAN ([1]; 50 mg/kg, second assay): 49.85 | CD45+ CD8+ cell subset, relative percentage, MEAN ([1]; 50 mg/kg, second assay): 6.03 | CD45+ CD8- cell subset, relative percentage, MEAN ([1]; 50 mg/kg, second assay): 75.15 | CD45- CD4+ cell subset, relative percentage, MEAN ([1]; 50 mg/kg, second assay): 8.83 | CD45- CD4- cell subset, relative percentage, MEAN ([1]; 50 mg/kg, second assay): 12.05 | CD45- CD8+ cell subset, relative percentage, MEAN ([1]; 50 mg/kg, second assay): 0.18 | CD45- CD8- cell subset, relative percentage, MEAN ([1]; 50 mg/kg, second assay): 18.65 | Ly5(B) cell subset, relative percentage, MEAN ([1]; 50 mg/kg, second assay): 41.20 | NK+ CD3+ cell subset, relative percentage, MEAN ([1]; 50 mg/kg, second assay): 2.18 | NK+ CD3- cell subset, relative percentage, MEAN ([1]; 50 mg/kg, second assay): 3.83 | NK- CD3+ cell subset, relative percentage, MEAN ([1]; 50 mg/kg, second assay): 39.60 | NK- CD3- cell subset, relative percentage, MEAN ([1]; 50 mg/kg, second assay): 54.38 | TCR(T) cell subset, relative percentage, MEAN ([1]; 50 mg/kg, second assay): 51.58 | CD4+ CD8+ cell subset, relative percentage, MEAN ([1]; 100 mg/kg, first assay): 0.70 | CD4+ CD8- cell subset, relative percentage, MEAN ([1]; 100 mg/kg, first assay): 36.85 | CD4+ CD11b+ cell subset, relative percentage, MEAN ([1]; 100 mg/kg, first assay): 0.95 | CD4+ CD11b- cell subset, relative percentage, MEAN ([1]; 100 mg/kg, first assay): 23.73 | CD4- CD8+ cell subset, relative percentage, MEAN ([1]; 100 mg/kg, first assay): 7.03 | CD4- CD8- cell subset, relative percentage, MEAN ([1]; 100 mg/kg, first assay): 55.50 | CD4- CD11b+ cell subset, relative percentage, MEAN ([1]; 100 mg/kg, first assay): 4.10 | CD4- CD11b- cell subset, relative percentage, MEAN ([1]; 100 mg/kg, first assay): 71.23 | CD45+ CD4+ cell subset, relative percentage, MEAN ([1]; 100 mg/kg, first assay): 23.25 | CD45+ CD4- cell subset, relative percentage, MEAN ([1]; 100 mg/kg, first assay): 52.10 | CD45+ CD8+ cell subset, relative percentage, MEAN ([1]; 100 mg/kg, first assay): 6.43 | CD45+ CD8- cell subset, relative percentage, MEAN ([1]; 100 mg/kg, first assay): 63.43 | CD45- CD4+ cell subset, relative percentage, MEAN ([1]; 100 mg/kg, first assay): 15.35 | CD45- CD4- cell subset, relative percentage, MEAN ([1]; 100 mg/kg, first assay): 9.30 | CD45- CD8+ cell subset, relative percentage, MEAN ([1]; 100 mg/kg, first assay): 0.83 | CD45- CD8- cell subset, relative percentage, MEAN ([1]; 100 mg/kg, first assay): 29.30 | Ly5(B) cell subset, relative percentage, MEAN ([1]; 100 mg/kg, first assay): 56.75 | NK+ CD3+ cell subset, relative percentage, MEAN ([1]; 100 mg/kg, first assay): 1.83 | NK+ CD3- cell subset, relative percentage, MEAN ([1]; 100 mg/kg, first assay): 3.88 | NK- CD3+ cell subset, relative percentage, MEAN ([1]; 100 mg/kg, first assay): 38.38 | NK- CD3- cell subset, relative percentage, MEAN ([1]; 100 mg/kg, first assay): 55.95
